Assay [1] deals with HCT116 cells. The assay is described as follows: Cell proliferation inhibition assay, HCT116. In kind it is cell-based. Conditions: Homo sapiens, HCT-116, 120 h; 5 days, viable cells counted. As to the method: (§1) Cell proliferation inhibition assay-Cell proliferation inhibition assay was performed as previously reported (48). All compounds to be tested were dissolved at 10 mM in DMSO. The cells were seeded into 12-well plates at a density of 40,000 cells per well in 1 mL of culture medium and were cultured overnight at 37° C. Either 1 μL of the compounds or the vehicle control (DMSO) was added to the cells. After 5 days, the medium was removed, and 200 μL of 0.25% trypsin was added. The cells were resuspended in 800 μL phosphate-buffered saline (PBS) and counted with Vi-CELL XR 2.03 (Beckman Coulter, Inc. USA). The ratio R of the number of viable cells in the compound-treated group to the number of viable cells in the DMSO-treated group was called relative growth rate, and the growth inhibition was calculated as (1−R)*100.
(§2) Cell proliferation inhibition assay was conducted according to a previous report (48). The cells were split into 12-well plates at a density of 40,000 cells per well in 1 mL of culture medium and were cultured overnight at 37° C. Either 1 μL of the compounds dissolved at 10 mmol/L in DMSO or the vehicle control (DMSO) was added to the cells. After 5 days, removed the medium, and 200 μL of 0.25% trypsin was added. The cells were resuspended in phosphate-buffered saline (PBS) and counted with Vi-CELL XR 2.03 (Beckman Coulter, Inc. USA). The ratio R of the number of viable cells in the compound treatment group to the number of viable cells in the DMSO treatment group was defined as the relative growth rate, and the growth inhibition rate was calculated as (1−R)*100.

In assay [2] the test system is LS174T cells. The assay is described as follows: Apoptosis by flow cytometry (Annexin V-FITC/PI). Format: cell-based. Conditions: 24 h, DBI-6 3 μM, BAY-876 1 μM, DMSO 17.28%. As to the method:
LS174T cells were cultured in 6-well plates at 37° C. for 24 hours. 3 μmol/L DBI-6 or 1 μmol/L BAY-876 were added to the cells and incubated for 24 hours. Cells of combination therapy group were treated with both DBI-6 and BAY-876. Then cells were harvested and washed with cold PBS twice and resuspended in 500 μL Binding Buffer. SubsequenμLy, the cells were stained with Annexin V-FITC and propidium iodide (PI) and incubated in dark for 5 minutes. The percentages of apoptosis and necrosis were determined by flow cytometry (BeckmanCoulter, Brea, CA, USA).

In assay [3] the test system is LS174T cells. Kind of assay: Cell proliferation inhibition assay, LS174T. Format: cell-based. Conditions: for IC50: Homo sapiens, LS174T, 120 h, 5 days, viable cells counted. As to the method:
as §1, §2

Assay [4] concerns LS174T xenografts. The assay is described as follows: LS174T xenografts in Rag1 mice. In kind it is in vivo, mouse. Conditions: DBI-6 40 mg/kg/day IP, BAY-876 3 mg/kg oral, 12 days. An excerpt:
Rag1 mice of 6 to 8 weeks of age were kindly provided by Institute of Genetics and Developmental Biology, Chinese Academy of sciences. LS174T cells in exponential growth phase were harvested and mixed with an equal volume of Matrigel (Corning, Glendale, Arizona). Each mouse was subcutaneously injected on the lower flanks with 2×10^6 cells. Tumor cell-injected mice were randomly divided into control and treatment groups when tumors were established and reached an average volume of 100 mm^3 (3 male and 3 female mice/group, two tumors on each mouse).
After tumors were established, DBI-6 was formulated in a mixture of ethanol (5%), 20% solutol and 20% Cremophor EL (50%) and Citric acid (45%; 50 mmol/L, pH4.5) and was daily intraperitoneally administered to the DBI-6 group at dose of 40 mg/kg mouse body weight. BAY-876 was dissolved in DMSO (10%), PEG400 (25%), Tween 80 (5%) and PBS (60%) and was given to the mice by gavage feeding to the BAY-876 group at a daily dose of 3 mg/kg mouse body weight. […]
The tumor sizes and mouse weights were measured every three days with calipers, and the tumor volume (Length×width^2/2) were calculated. […] Then the tumor sections were analyzed with H&E and Ki-67 staining. Plasma was collected and analyzed with the assay kit (Jiancheng Bioengineering Institute, Nanjing, China) according to the manufacturer's protocol. […]

This note sets out measurements from patent US20250042880A1 (UNIVERSITY OF KENTUCKY RESEARCH FOUNDATION, priority 2021, published 2025).

Take `Cc1c(NC(=O)c2cc(C(N)=O)nc3cc(F)ccc23)c(C(F)(F)F)nn1Cc1ccc(C#N)cc1` [BAY-876, N^4-[1-(4-cyanobenzyl)-5-methyl-3-(trifluoromethyl)-1H-pyrazol-4-yl]-7-fluoroquinoline-2,4-dicarboxamide]: the IC50 (as a rule, the concentration that gives 50% inhibition) in assay [1] is 170 nM. In addition, the “apoptosis rate (percentage of apoptotic cells)” value in assay [2] is listed as 34.57%. In addition, in assay [3], the “inhibition of proliferation of LS174T cells” value was “inhibited the proliferation of these cell lines at nanomolar concentrations” and half-maximal inhibition (IC50) required 130 nM. In assay [4], the tumor growth entry was “Tumor growth was inhibited”.

On to `O=c1c(-c2ccc(Cl)c(Cl)c2)coc2cc(OCCN3CCN(CCO)CC3)ccc12` [DBI-6, 3-(3,4-dichlorophenyl)-7-(2-(4-(2-hydroxyethyl)piperazin-1-yl)ethoxy)-4H-chromen-4-one], for which the IC50 stood at 530 nM in assay [1] and 1140 nM in assay [3]. In assay [2], the “apoptosis rate (percentage of apoptotic cells)” value turned out to be 30.61%. The tumor growth result in assay [4] was “Tumor growth was inhibited”.
